Measured values from patent US11339151B2, “Aliphatic acid amide derivative” (Sumitomo Dainippon Pharma Co., Ltd., priority 2019, dated 2022).
pIC50, pKi: −log10 of the molar value.

Columns and labels:
human D2 receptor = human D2 receptor (Homo sapiens (Human), UniProt P14416); test: Test 1: binding activity for human D2 receptor ([3H]Spiperone, CHO cell membrane fraction); conditions: for D2 Ki/5-HT2A Ki / D2 Ki/5-HT7 Ki: selectivity ratio; for pKi: [3H]Spiperone, room temperature 60 minutes
Procedure: (§1) Ki value was evaluated from dissociation constant which was calculated from saturated binding tests, and a substrate concentration, and it was used as an index for binding affinity.

[1] = Test 10: hepatotoxic risk, dansyl glutathione (dGSH) trapping assay; format: in vitro ADME; conditions: human hepatic microsome, 37° C., 60 minutes; N.D. means below detection limit
Procedure: Test 10: Evaluation of Hepatotoxic Risk (Dansyl Glutathione (dGSH) Trapping Assay)
The present compound was metabolized in hepatic microsome, and from the resulted metabolite, reactive metabolite which reacts with dancyl glutathione (dGSH) was detected and quantified as the following method. Measurement was carried out with a screening robot (Tecan) for metabolic reaction, and with a fluorescence detection UPLC system (Waters) for metabolite-dGSH binding concentration.
The present compound was dissolved in DMSO to prepare 10 mmol/L test compound solution. 7.6 mL of potassium phosphate buffer (500 mmol/L, pH 7.4), 1.9 mL of human hepatic microsome (Xenotech, 20 mg protein/mL), and 1.27 mL of pure water were mixed to prepare a microsome solution. To 3.78 mL of the microsome solution was added 0.67 mL of pure water to prepare a microsome (dGSH(−)) solution. To 6.48 mL of the microsome solution was added 1.14 mL of the dGSH solution (20 mmol/L) to prepare a microsome (dGSH(+)) solution. […] 33 mg of tris(2-carboxyethyl)phosphine (TECP) was dissolved in 115 mL of methanol to prepare a reaction stop solution.
12 μL of the test compound solution was mixed with 388 μL of pure water, and the mixture was dispensed in 50 μL each into 6 wells of a 96-well plate. […] To the “reaction group” and “unreacted group” was added the microsome (dGSH(+)) solution, and to the “dGSH-free group” was added the microsome (dGSH(−)) solution in 50 μL each. To the “reaction group” and “dGSH-free group” was added to the cofactor solution, and to the “unreacted group” was added pure water in 50 μL each. After incubated at 37° C. for 60 minutes, the reaction stop solution was added in 450 μL each to stop the reaction. […]
Metabolite-dGSH binding concentration was measured by the following conditions, using a fluorescence detection UPLC system. […]
Fluorescence intensity was corrected with the composition of organic solvent at the time of elution because fluorescence intensity changes depending on the composition of organic solvent.

hERG channel = hERG channel (Homo sapiens (Human), UniProt Q12809); test: Test 5: inhibitory activity for hERG channel (whole cell patch clamp, hERG-CHO cells); format: cell-based; conditions: for hERG inhibitory IC50 (nmol/L)/5-HT2A Ki (nmol/L) / hERG inhibitory IC50 (nmol/L)/5-HT7 Ki (nmol/L): ratio; for pIC50: hERG-CHO cells, auto patch clamp
hERG channel, sequence (Q12809 whole entry): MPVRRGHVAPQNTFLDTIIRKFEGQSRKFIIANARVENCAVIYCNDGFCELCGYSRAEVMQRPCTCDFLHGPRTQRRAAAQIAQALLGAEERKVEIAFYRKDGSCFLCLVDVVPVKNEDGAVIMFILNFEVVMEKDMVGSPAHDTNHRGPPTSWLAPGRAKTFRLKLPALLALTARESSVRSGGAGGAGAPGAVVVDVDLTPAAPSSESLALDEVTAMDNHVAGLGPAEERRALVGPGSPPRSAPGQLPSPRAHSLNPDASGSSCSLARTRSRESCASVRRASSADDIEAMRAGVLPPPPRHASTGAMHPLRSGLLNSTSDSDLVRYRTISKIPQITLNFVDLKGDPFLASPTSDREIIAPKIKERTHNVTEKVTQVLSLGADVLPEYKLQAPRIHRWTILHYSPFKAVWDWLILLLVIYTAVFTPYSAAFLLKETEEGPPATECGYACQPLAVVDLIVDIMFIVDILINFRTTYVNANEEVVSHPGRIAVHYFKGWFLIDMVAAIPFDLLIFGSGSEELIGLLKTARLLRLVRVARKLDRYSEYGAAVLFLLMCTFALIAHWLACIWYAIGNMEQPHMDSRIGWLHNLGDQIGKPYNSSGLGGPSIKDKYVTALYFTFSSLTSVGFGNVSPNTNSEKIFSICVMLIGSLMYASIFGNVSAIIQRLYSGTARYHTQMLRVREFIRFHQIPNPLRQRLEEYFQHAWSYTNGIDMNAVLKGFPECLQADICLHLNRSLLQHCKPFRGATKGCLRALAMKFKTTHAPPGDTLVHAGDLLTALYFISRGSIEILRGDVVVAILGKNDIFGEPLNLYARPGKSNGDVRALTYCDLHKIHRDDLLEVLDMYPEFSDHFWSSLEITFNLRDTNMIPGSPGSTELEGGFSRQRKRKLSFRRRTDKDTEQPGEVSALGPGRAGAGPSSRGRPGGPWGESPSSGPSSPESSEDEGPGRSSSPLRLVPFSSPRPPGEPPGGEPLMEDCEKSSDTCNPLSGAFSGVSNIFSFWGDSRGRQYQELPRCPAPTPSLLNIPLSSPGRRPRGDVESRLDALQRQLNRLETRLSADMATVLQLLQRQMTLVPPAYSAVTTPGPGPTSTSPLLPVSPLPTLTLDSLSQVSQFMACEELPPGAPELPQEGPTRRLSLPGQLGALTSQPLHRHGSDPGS
Procedure: Test 5: Evaluation of Inhibitory Activity for hERG Channel
Inhibitory activity of the present compound for hERG channel was measured by whole cell patch clamp method with an auto patch clamp system using CHO cells in which hERG channel involved in human rapidly activating delayed rectifier potassium current (IKr) was forcibly expressed.
hERG-CHO cells purchased from ChanTest Cop. were cultured in a CO2 incubator at 37° C., and dissociated from a flask with trypsin shortly before the measurement of hERG current to prepare a cell suspension.
The cell suspension, the extracellular fluid, the intracellular fluid, and the measurement plate were set in an auto patch clamp system, and hERG current was measured by whole cell patch clamp method. […] Each pulse interval was 15 seconds. The data analysis was carried out with Qube Assay Software (Sophion Sophion). The test was carried out by applying incrementally 4 concentrations of each test compound, and the average of the maximum peak tail currents which were obtained from the last 3 stimulations in each concentration was determined as the evaluated data.

[2] = Test 3-1: metabolic stability test in human hepatic microsome; format: in vitro ADME; conditions: microsome 0.1 mg/mL, test compound 0.1 μmol/L, 37° C., 30 minutes
Procedure: Test 3-1: Metabolic Stability Test in Human Hepatic Microsome
(§2) The metabolic stability of the present compound in human hepatic microsome was evaluated as mentioned below. Human hepatic microsome was obtained from Xenontech. Human hepatic microsome, NADPH, and each test compound were mixed in 25 mmol/L phosphate buffer solution (pH 7.4) to reach the following concentrations as shown below, and the mixture was incubated at 37° C. for 30 minutes. • Human hepatic microsome: 0.1 mg/mL • NADPH: 3.2 mmol/L • Test compound: 0.1 μmol/L
(§3) The residual ratio of test compound in each sample after 30 minutes was measured by LC-MS, and the metabolic stability in human hepatic microsome was calculated from the following formula. Metabolic stability in human hepatic microsome (mL/min/mg protein)=−LN (residual ratio)/30/0.1

human 5-HT7 receptor [3] = molecular target: T1, human 5-HT7 receptor (Homo sapiens (Human), UniProt P34969); test: Test 2: antagonist activity for human 5-HT7 receptor (aequorin luminescence, CHO-K1 cells); format: cell-based; conditions: Gα16
T1 sequence (P34969 whole entry): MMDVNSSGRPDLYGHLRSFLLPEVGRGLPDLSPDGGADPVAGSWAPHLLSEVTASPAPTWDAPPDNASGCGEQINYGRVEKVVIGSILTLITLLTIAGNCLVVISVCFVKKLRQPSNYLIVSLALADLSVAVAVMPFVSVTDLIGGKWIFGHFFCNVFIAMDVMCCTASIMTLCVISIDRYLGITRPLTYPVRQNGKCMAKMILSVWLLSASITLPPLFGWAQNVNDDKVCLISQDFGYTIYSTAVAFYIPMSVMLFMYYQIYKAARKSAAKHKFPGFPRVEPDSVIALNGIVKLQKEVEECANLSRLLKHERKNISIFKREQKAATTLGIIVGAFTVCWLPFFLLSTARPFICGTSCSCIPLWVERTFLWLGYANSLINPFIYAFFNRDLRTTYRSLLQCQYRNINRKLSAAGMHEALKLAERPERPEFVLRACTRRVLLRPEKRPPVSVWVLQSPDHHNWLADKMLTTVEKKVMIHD
Procedure: (§4) Test 2: Evaluation of Antagonist Activity for Human 5-HT2A Receptor and Human 5-HT7 Receptor
(§5) Aequorin, Gα 16 protein, and each receptor were transiently expressed in CHO-K1 cells (Chinese hamster ovary). The cells were cultivated in a CO2 incubator at 37° C. overnight, seeded into a 384-well plate, and stood at room temperature for 2 hours. Each compound dissolved in DMSO was added thereto, and changes in luminescence were measured by FDSS/μCELL drug discovery screening support system (Hamamatsu Photonics K.K.). As for antagonist activity, inhibitory activity of each compound was calculated by setting the luminescence level of wells to which 10 μmol/L endogenous ligand was added as 100%.

human 5-HT7 receptor [4] = molecular target: T1, human 5-HT7 receptor; test: Test 1: binding activity for human 5-HT7 receptor ([3H]SB-269970, CHO cell membrane fraction); conditions: [3H]SB-269970, room temperature 60 minutes
Procedure: as §1

human 5-HT2A receptor [5] = molecular target: T2, human 5-HT2A receptor (Homo sapiens (Human), UniProt P28223); test: Test 2: antagonist activity for human 5-HT2A receptor (aequorin luminescence, CHO-K1 cells); format: cell-based; conditions: Gα16
T2 sequence (P28223 whole entry): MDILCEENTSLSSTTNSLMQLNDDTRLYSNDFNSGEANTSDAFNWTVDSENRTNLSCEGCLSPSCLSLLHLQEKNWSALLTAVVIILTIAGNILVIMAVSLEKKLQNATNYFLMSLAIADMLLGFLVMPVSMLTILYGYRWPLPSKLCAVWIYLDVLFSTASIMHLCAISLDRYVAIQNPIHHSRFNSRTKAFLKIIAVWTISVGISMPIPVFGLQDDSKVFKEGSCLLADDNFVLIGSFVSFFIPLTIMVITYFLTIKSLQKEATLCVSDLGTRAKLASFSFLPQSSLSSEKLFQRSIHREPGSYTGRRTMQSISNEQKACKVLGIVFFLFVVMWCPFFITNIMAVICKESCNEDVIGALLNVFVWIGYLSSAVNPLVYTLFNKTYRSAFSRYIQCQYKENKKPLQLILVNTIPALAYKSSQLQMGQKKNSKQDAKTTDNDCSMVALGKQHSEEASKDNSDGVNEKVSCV
Procedure: as §4, §5

[6] = Test 3-2: metabolic stability test in human hepatic microsome; format: in vitro ADME; conditions: microsome 0.5 or 1.0 mg/mL, test compound 0.1 μmol/L, 30 or 60 minutes
Procedure: Test 3-2: Metabolic Stability Test in Human Hepatic Microsome
as §2, with “For more accurate evaluation of the metabolic stability in human hepatic microsome, the metabolic” for “The metabolic”, “evaluated at an appropriate concentration of human hepatic microsome” for “evaluated”, “for 60” for “for 30”, “microsome: 0.5 or 1.0” for “microsome: 0.1”, “• NAPDH:” for “• NADPH:”
as §3, with “of a” for “of”, “30 or 60” for “30”, “ratio)/reaction time/concentration of human hepatic microsome” for “ratio)/30/0.1”

[7] = Test 4: predictive test of human half life; conditions: calculated from rat distribution volume, serum unbound fraction and Test 3-2 stability
Procedure: Test 4: Predictive Test of Human Half Life
The present compound was intravenously administered to a rat as an aqueous solution of 0.01 mol/L hydrochloric acid. Blood was collected on 5 minutes, 15 minutes, 30 minutes, 1 hour, 2 hours, 4 hours, 6 hours, and 24 hours after the administration. Plasma was obtained from the collected blood, the drug concentration in plasma was measured by LC-MS, and the distribution volume of rat was calculated from the transition of the concentration.
The unbound fraction rate of the present compound in human or rat serum was measured by equilibrium dialysis method.
The half-life in human was calculated according to the following formula using the results of the distribution volume of rat, the unbound fraction rate in human or rat serum, and the metabolic stability in human hepatic microsome obtained in Test 3-2.

human 5-HT2A receptor [8] = molecular target: T2, human 5-HT2A receptor; test: Test 1: binding activity for human 5-HT2A receptor ([3H]Ketanserin, CHO cell membrane fraction); conditions: room temperature 60 minutes
Procedure: as §1

[9] = Test 9: intracerebral transferability in rats; format: in vivo; conditions: brain and plasma (unbound); SD or WKY rat, subcutaneous or oral, 0.5, 1 or 2 hours; unbound brain/plasma ratio
Procedure: In this test, intracerebral transferability of the present compound was evaluated by the following method. The present compounds were subcutaneously administered as a solution in saline, or orally administered as a suspension in methyl cellulose to a 7-week-old SD or WKY rat. Plasma and brain were collected on 0.5 hour, 1 hour, or 2 hours after the administration in order to measure the drug concentrations in plasma and brain by LC-MS.
Binding rates of the present compound to plasma and brain protein were measured by equilibrium dialysis method.
Kp,uu,brain (unbound drug concentration ratio between brain/plasma) can be calculated by applying the compound concentrations in plasma and brain and the binding rates to plasma and brain protein obtained from the above test into the following formula. Kp,uu,brain=(Compound concentration in brain×(100−Binding rate to brain protein (%))/100)/(Compound concentration in plasma×(100−Binding rate to plasma protein (%))/100)

human D2 receptor, sequence (P14416 whole entry): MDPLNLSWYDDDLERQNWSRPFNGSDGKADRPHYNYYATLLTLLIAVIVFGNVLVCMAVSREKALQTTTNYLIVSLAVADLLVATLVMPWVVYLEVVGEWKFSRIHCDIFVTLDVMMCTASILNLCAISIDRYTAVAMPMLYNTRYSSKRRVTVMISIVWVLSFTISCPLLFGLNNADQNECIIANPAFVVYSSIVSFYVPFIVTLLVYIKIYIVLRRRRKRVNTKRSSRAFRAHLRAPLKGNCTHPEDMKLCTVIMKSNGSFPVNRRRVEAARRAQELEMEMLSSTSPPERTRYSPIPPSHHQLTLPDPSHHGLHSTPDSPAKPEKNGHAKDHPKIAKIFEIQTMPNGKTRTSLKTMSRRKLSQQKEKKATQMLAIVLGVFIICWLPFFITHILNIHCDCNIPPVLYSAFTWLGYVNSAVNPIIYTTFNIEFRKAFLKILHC

| Structure (SMILES) | D2 Ki/5-HT2A Ki (human D2 receptor) | D2 Ki/5-HT7 Ki (human D2 receptor) | Metabolite-dGSH binding concentration [1] [µM] | hERG inhibitory IC50 (nmol/L)/5-HT2A Ki (nmol/L) (hERG channel) | Metabolic stability in human hepatic microsome [2] [mL/min/mg protein] | pIC50 (human 5-HT7 receptor [3]) | pKi (human 5-HT7 receptor [4]) | pKi (human D2 receptor) | pIC50 (human 5-HT2A receptor [5]) | Metabolic stability in human hepatic microsome [6] [mL/min/mg protein] | pIC50 (hERG channel) | Predicted half-life [7] [h] | pKi (human 5-HT2A receptor [8]) | Kp uu at 2 h [9] | hERG inhibitory IC50 (nmol/L)/5-HT7 Ki (nmol/L) (hERG channel) |
| --- | --- | --- | --- | --- | --- | --- | --- | --- | --- | --- | --- | --- | --- | --- | --- |
| CCN(CCN1CCC(c2noc3cc(F)ccc23)CC1)C(=O)C(O)CNC(C)=O (centres unmarked) [Example 71, 3-Acetamide-N-ethyl-N-{2-[4-(6-fluoro-1,2-benzoisoxazol-3-yl)piperidin-1-yl]ethyl}-2-hydroxypropanamide] | 99 | 36 | 0.132 | >4452 | <0.05 |  |  |  |  |  |  |  |  |  |  |
| CCN(CCN1CCC(n2ccc3cc(F)ccc32)CC1)C(=O)C(C)O (centres unmarked) [Example 50] |  |  |  |  | <0.05 | 7.09 | 7.87 | < 6.00 | 7.31 |  |  |  |  |  |  |
| CCN(CCN1CCC(c2noc3cc(F)ccc23)CC1)S(=O)(=O)CCO [Example 51, N-Ethyl-N-{2-[4-(6-fluoro-1,2-benzoisoxazol-3-yl)piperidin-1-yl]ethyl}-2-hydroxyethane-1-sulfonamide] |  |  |  |  | <0.05 | 7.21 | 8.72 | 6.51 |  | 0.016 | 5.16 | 6 |  |  |  |
| CCN(CCN1CCC(c2noc3cc(F)ccc23)CC1)C(=O)C(O)COC (centres unmarked) [Example 18, N-Ethyl-N-{2-[4-(6-fluoro-1,2-benzoisoxazol-3-yl)piperidin-1-yl]ethyl}-2-hydroxy-3-methoxypropanamide] |  |  |  | 1637 | <0.05 | 7.14 | 8.43 | 6.70 | 7.24 |  | 5.39 |  | 8.60 | 0.56 | 1097 |
| CCN(CCN1CCC(c2noc3cc(F)ccc23)CC1)S(=O)(=O)C(C)CO (centres unmarked) [Example 52] | >34 | >30 |  |  |  | 6.75 | 6.48 | < 5.00 | 6.02 |  |  |  | 6.53 |  |  |
| CCN(CCN1CCC(c2c[nH]c3ccccc23)CC1)S(=O)(=O)CCO [Example 57] |  |  |  |  | 0.06 | 7.00 | 8.06 | 6.68 | 7.25 |  |  |  |  |  |  |
| CCN(CCN1CCC(c2noc3cc(F)ccc23)CC1)C(=O)[C@H](C)O [Example 16, (2S)—N-Ethyl-N-{2-[4-(6-fluoro-1,2-benzoisoxazol-3-yl)piperidin-1-yl]ethyl}-2-hydroxypropanamide] |  |  |  |  | <0.05 |  |  |  |  | 0.018 | 5.32 | 3 |  |  |  |
| CCN(CCN1CCC(c2noc3cc(F)ccc23)CC1)C(=O)C1(O)CC1 [Example 24] |  |  | 7.645 | 5203 | <0.05 | 7.39 |  |  | 8.15 |  | 5.26 |  |  |  | 4988 |
| CCN(CCN1CCC(c2noc3cc(F)ccc23)CC1)C(=O)CCO [Example 17, N-Ethyl-N-{2-[4-(6-fluoro-1,2-benzoisoxazol-3-yl)piperidin-1-yl]ethyl}-3-hydroxypropanamide] |  |  |  |  | <0.05 | 7.18 |  |  |  | 0.0025 | 5.55 | 27 |  |  |  |
| CCN(CCN1CCC(c2noc3cc(F)c(C)cc23)CC1)C(=O)[C@H](C)O [Example 13] |  |  | 0.214 |  | 0.054 | 7.09 |  |  |  |  | 5.54 |  |  |  |  |
| CC(O)C(=O)N(CCN1CCC(c2noc3cc(F)ccc23)CC1)C(C)C (centres unmarked) [Example 31] |  |  |  |  | <0.05 | 7.19 | 8.92 | 7.05 |  |  | 5.51 |  |  |  |  |
| CCN(CCN1CCC(c2noc3ccccc23)CC1)S(=O)(=O)CCO [Example 61] |  |  |  |  | <0.05 | 7.82 | 7.90 | 6.29 |  |  | < 5.00 |  |  |  |  |
| CCN(CCN1CCC(c2noc3cc(F)ccc23)CC1)C(=O)C1(O)CCCNC1 (centres unmarked) [Example 69] |  |  |  |  | <0.05 | 7.07 | 8.82 | > 7.00 |  |  | < 5.00 |  |  |  |  |
